{"source": "ChEMBL document CHEMBL4630907", "about": "(2021)", "key": {"[1]": {"target": "5-hydroxytryptamine receptor 2A (Homo sapiens, UniProt P28223)", "conditions": "Compound concentration 10.0 uM"}, "[2]": {"target": "Voltage-gated potassium channel, IKs; KCNQ1(Kv7.1)/KCNE1(MinK) (Homo sapiens, UniProt P15382+P51787)", "test": "(§1) Cross screening panel", "format": "protein-complex assay"}, "[3]": {"target": "T1, Protein polybromo-1 (Homo sapiens, UniProt Q86U86)", "T1 sequence (Q86U86 whole entry)": "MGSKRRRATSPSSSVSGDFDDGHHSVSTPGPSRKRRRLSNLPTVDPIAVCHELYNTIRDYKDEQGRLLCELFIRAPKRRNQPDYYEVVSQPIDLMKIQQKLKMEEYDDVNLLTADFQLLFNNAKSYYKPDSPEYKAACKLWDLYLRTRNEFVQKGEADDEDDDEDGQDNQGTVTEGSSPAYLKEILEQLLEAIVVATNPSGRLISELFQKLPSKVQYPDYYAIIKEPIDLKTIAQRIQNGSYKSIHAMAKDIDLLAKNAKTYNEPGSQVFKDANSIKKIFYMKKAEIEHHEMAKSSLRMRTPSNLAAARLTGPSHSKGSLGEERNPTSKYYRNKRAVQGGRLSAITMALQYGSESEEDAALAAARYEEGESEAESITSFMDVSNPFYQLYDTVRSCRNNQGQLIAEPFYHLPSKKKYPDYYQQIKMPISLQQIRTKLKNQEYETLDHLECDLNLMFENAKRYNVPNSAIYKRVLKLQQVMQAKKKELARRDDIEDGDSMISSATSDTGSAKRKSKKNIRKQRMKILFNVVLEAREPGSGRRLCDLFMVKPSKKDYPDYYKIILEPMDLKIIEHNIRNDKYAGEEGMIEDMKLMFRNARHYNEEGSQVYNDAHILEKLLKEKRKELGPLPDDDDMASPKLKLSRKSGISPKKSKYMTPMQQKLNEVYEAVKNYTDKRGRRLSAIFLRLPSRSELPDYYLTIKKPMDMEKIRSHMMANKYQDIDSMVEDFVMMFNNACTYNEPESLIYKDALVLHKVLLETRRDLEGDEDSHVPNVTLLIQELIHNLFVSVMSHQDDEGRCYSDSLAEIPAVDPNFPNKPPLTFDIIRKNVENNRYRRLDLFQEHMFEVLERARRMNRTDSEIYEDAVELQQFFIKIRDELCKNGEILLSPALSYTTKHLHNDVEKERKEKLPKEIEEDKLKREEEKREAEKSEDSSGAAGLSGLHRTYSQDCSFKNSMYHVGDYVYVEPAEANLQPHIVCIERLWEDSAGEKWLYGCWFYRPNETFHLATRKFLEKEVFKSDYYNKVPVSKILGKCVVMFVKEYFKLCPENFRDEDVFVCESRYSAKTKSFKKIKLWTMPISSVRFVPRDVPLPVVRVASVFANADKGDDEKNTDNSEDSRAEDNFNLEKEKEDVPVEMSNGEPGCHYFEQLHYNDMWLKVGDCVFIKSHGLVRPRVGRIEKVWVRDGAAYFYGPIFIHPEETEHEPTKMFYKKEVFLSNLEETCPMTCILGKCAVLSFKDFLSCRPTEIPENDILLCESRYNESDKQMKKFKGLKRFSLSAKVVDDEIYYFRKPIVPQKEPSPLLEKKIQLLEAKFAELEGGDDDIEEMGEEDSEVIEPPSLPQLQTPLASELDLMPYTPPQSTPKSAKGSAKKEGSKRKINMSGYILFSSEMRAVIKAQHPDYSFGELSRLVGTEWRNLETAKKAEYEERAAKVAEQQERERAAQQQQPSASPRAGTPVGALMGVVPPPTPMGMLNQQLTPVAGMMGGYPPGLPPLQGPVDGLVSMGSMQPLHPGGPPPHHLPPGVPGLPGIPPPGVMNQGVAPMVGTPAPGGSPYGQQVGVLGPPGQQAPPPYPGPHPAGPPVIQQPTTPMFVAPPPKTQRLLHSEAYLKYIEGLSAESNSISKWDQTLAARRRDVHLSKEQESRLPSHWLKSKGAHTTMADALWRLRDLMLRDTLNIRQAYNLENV", "test": "PBRM1(2) DiscoverX BROMOscan"}, "[4]": {"target": "T2, Bromodomain-containing protein 2 (Homo sapiens, UniProt P25440)", "test": "BET mutant TR-FRET assay (BRD2 BD2)"}, "[5]": {"target": "T3, Bromodomain-containing protein 3 (Homo sapiens, UniProt Q15059)", "test": "BRD3 Bromoscan (DiscoverX)"}, "[6]": {"target": "Histone acetyltransferase KAT2B (Homo sapiens, UniProt Q92831)", "test": "PCAF DiscoverX BROMOscan"}, "[7]": {"target": "GABA-A receptor; anion channel", "test": "GPCRScan assay: inhibition of GABAA/BZP", "format": "protein-complex assay, Rattus norvegicus", "parameters": "radioligand conc. used [nm] 0.6 – 4.0, parental cells brain tissue"}, "[8]": {"target": "T3, Bromodomain-containing protein 3", "test": "BET mutant TR-FRETassay (BRD3 BD1)"}, "[9]": {"target": "E3 ubiquitin-protein ligase TRIM33 (Homo sapiens, UniProt Q9UPN9)", "test": "TRIM33(PHD,Bromo.) DiscoverX BROMOscan"}, "[10]": {"target": "Alpha-1D adrenergic receptor (Homo sapiens) (UniProt P25100)", "sequence (P25100 whole entry)": "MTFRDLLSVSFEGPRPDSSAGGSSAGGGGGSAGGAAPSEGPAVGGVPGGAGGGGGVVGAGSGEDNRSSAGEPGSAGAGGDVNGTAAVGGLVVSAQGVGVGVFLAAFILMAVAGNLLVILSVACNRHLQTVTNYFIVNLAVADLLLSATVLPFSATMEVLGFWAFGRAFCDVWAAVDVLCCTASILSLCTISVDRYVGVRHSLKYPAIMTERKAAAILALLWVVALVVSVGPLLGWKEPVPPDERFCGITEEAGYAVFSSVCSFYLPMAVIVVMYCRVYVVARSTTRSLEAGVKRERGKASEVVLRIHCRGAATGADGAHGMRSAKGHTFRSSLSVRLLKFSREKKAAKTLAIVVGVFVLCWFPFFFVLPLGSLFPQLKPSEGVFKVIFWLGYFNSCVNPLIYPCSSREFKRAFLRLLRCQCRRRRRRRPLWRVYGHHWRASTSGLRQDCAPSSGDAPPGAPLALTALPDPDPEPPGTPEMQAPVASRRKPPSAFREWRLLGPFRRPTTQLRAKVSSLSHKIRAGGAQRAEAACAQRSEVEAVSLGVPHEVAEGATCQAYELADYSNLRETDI", "conditions": "Compound concentration 10.0 uM"}, "[11]": {"test": "as §1"}, "[12]": {"target": "T2, Bromodomain-containing protein 2", "test": "TR-FRET assay (BRD2 BD1)"}, "[13]": {"target": "Bromodomain adjacent to zinc finger domain protein 2A (Homo sapiens, UniProt Q9UIF9)", "test": "BAZ2A DiscoverX BROMOscan"}, "[14]": {"target": "D(1A) dopamine receptor (Homo sapiens, UniProt P21728)", "conditions": "Compound concentration 10.0 uM"}, "[15]": {"target": "Transcription initiation factor TFIID subunit 1-like (Homo sapiens, UniProt Q8IZX4)", "sequence (Q8IZX4 whole entry)": "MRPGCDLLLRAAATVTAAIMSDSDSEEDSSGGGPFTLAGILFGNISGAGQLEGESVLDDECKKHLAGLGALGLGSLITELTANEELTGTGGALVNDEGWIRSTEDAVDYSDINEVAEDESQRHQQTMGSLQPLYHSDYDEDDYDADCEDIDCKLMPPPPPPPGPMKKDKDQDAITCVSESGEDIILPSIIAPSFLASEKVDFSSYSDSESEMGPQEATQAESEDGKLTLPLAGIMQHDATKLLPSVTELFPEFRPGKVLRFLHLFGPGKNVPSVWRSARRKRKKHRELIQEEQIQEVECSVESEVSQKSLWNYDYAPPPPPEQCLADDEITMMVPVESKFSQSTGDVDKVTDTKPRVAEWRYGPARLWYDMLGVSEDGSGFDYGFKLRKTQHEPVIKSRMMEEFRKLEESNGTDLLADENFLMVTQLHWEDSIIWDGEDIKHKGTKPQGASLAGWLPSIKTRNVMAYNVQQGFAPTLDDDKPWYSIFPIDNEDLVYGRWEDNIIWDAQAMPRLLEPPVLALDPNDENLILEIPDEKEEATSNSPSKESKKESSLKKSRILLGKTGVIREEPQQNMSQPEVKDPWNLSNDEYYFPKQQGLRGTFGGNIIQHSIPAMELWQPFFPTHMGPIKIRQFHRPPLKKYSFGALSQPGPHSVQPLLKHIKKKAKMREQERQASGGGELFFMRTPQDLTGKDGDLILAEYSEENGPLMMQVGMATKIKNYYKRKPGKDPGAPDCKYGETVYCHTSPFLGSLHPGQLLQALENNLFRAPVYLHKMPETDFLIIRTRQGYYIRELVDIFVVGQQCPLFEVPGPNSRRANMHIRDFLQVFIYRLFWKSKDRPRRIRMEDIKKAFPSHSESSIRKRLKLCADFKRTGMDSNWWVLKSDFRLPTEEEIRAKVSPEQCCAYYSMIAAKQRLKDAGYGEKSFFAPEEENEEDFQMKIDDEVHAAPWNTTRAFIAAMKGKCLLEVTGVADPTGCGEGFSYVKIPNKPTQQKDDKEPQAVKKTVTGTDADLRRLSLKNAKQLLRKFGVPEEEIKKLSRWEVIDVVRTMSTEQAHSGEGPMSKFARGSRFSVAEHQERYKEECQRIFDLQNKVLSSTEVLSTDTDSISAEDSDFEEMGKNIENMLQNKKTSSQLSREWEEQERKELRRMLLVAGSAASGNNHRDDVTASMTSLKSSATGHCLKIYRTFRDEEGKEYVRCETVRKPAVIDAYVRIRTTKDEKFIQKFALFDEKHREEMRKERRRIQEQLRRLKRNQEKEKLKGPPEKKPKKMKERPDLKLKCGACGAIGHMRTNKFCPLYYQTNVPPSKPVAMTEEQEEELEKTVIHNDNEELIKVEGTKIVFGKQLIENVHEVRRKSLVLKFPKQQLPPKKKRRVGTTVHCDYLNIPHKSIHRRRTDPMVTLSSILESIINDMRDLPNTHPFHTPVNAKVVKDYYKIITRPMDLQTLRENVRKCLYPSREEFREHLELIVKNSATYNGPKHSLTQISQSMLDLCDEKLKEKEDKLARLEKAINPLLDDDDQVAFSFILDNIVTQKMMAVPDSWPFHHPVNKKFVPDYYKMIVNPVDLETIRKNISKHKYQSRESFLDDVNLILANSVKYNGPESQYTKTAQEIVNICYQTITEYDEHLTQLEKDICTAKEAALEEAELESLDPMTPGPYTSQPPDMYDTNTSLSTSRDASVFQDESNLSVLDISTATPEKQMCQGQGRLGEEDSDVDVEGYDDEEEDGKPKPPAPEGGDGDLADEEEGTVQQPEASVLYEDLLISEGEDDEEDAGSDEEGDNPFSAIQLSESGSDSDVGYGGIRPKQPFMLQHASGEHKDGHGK", "test": "TAF1L(2) DiscoverX BROMOscan"}, "[16]": {"target": "D(1B) dopamine receptor (Homo sapiens) (UniProt P21918)", "conditions": "Compound concentration 10.0 uM"}, "[17]": {"target": "D(3) dopamine receptor (Homo sapiens, UniProt P35462)", "conditions": "Compound concentration 10.0 uM"}, "[18]": {"target": "T3, Bromodomain-containing protein 3", "test": "BRD3(1) DiscoverX BROMOscan"}, "[19]": {"target": "5-hydroxytryptamine receptor 1A (Homo sapiens) (UniProt P08908)", "conditions": "Compound concentration 10.0 uM"}, "[20]": {"target": "Peregrin (Homo sapiens, UniProt P55201)", "test": "BRPF1 DiscoverX BROMOscan"}, "[21]": {"species_on_record": "Rattus norvegicus", "conditions": "Compound concentration 10.0 uM"}, "[22]": {"target": "Beta-2 adrenergic receptor (Homo sapiens, UniProt P07550)", "sequence (P07550 whole entry, looked up)": "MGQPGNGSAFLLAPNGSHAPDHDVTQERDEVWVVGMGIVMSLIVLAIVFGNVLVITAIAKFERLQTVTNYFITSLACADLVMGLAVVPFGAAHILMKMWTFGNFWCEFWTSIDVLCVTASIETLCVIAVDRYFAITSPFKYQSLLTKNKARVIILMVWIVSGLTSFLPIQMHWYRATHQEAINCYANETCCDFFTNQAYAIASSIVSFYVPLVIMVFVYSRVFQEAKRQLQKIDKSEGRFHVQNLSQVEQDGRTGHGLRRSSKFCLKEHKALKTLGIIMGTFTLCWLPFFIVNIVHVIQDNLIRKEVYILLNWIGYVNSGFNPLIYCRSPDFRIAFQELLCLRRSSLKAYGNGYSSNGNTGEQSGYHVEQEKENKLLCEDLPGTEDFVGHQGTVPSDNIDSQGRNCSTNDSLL", "conditions": "Compound concentration 10.0 uM"}, "[23]": {"target": "Mu-type opioid receptor (Homo sapiens, UniProt P35372)", "conditions": "Compound concentration 10.0 uM"}, "[24]": {"target": "Muscarinic acetylcholine receptor M1 (Homo sapiens) (UniProt P11229)", "conditions": "Compound concentration 10.0 uM"}, "[25]": {"target": "Kappa-type opioid receptor (Homo sapiens, UniProt P41145)", "conditions": "Compound concentration 10.0 uM"}, "[26]": {"target": "T2, Bromodomain-containing protein 2", "test": "BRD2(1) DiscoverX BROMOscan"}, "[27]": {"target": "Muscarinic acetylcholine receptor M5 (Homo sapiens) (UniProt P08912)", "conditions": "Compound concentration 10.0 uM"}, "[28]": {"target": "T1, Protein polybromo-1", "test": "PBRM1(5) DiscoverX BROMOscan"}, "[29]": {"target": "Beta-1 adrenergic receptor (Homo sapiens) (UniProt P08588)", "conditions": "Compound concentration 10.0 uM"}, "[30]": {"target": "Histamine H4 receptor (Homo sapiens) (UniProt Q9H3N8)", "conditions": "Compound concentration 10.0 uM"}, "[31]": {"target": "D(4) dopamine receptor (Homo sapiens) (UniProt P21917)", "sequence (P21917 whole entry)": "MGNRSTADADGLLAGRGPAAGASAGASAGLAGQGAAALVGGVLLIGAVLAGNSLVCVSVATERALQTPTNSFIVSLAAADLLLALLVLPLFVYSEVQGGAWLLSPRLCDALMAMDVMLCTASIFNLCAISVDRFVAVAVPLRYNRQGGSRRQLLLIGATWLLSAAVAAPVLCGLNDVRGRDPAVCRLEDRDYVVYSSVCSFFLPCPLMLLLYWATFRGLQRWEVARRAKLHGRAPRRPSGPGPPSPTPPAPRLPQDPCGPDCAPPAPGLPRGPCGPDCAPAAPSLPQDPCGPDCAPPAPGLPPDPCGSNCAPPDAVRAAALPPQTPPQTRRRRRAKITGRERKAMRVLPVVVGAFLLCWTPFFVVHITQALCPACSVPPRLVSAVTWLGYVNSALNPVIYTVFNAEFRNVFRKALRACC", "conditions": "Compound concentration 10.0 uM"}, "[32]": {"target": "Alpha-2A adrenergic receptor (Homo sapiens) (UniProt P08913)", "conditions": "Compound concentration 10.0 uM"}, "[33]": {"target": "SWI/SNF-related matrix-associated actin-dependent regulator of chromatin subfamily A member 2 (Homo sapiens, UniProt P51531)", "test": "SMARCA2 DiscoverX BROMOscan"}, "[34]": {"target": "Transcription initiation factor TFIID subunit 1 (Homo sapiens, UniProt P21675)", "test": "TAF1(2) DiscoverX BROMOscan"}, "[35]": {"target": "Sodium-dependent dopamine transporter (Homo sapiens) (UniProt Q01959)", "conditions": "Compound concentration 10.0 uM"}, "[36]": {"target": "Histamine H2 receptor (Homo sapiens) (UniProt P25021)", "conditions": "Compound concentration 10.0 uM"}, "[37]": {"target": "5-hydroxytryptamine receptor 3A (Homo sapiens) (UniProt P46098)", "conditions": "Compound concentration 10.0 uM"}, "[38]": {"target": "5-hydroxytryptamine receptor 2C (Homo sapiens) (UniProt P28335)", "conditions": "Compound concentration 10.0 uM"}, "[39]": {"target": "D(4) dopamine receptor (Homo sapiens, UniProt P21917)", "sequence (P21917 whole entry)": "as above", "test": "GPCRScan assay: inhibition of D4", "parameters": "radioligand conc. used [nm] 0.6 – 1.7, parental cells Stable HEK"}, "[40]": {"target": "T4, 5-hydroxytryptamine receptor 3A (Homo sapiens, UniProt P46098)", "T4 sequence (P46098 whole entry)": "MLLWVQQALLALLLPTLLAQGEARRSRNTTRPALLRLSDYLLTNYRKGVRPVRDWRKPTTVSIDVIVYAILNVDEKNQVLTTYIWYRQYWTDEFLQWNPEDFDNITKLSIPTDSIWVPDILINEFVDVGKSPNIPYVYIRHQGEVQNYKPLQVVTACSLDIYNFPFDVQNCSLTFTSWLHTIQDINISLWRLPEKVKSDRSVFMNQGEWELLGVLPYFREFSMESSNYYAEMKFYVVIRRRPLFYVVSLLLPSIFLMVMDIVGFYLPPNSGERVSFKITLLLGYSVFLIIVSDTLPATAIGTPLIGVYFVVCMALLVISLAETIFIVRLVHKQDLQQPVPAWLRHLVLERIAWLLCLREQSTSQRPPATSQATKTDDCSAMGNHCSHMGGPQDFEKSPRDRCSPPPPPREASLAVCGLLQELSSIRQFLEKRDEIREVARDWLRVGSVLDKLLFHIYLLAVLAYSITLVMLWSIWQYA", "test": "GPCRScan assay: inhibition of 5-HT3", "parameters": "radioligand conc. used [nm] 1.0 – 2.0, parental cells HEKT"}, "[41]": {"target": "Bromodomain and PHD finger-containing protein 3 (Homo sapiens, UniProt Q9ULD4)", "test": "BRPF3 DiscoverX BROMOscan"}, "[42]": {"target": "Alpha-2C adrenergic receptor (Homo sapiens) (UniProt P18825)", "conditions": "Compound concentration 10.0 uM"}, "[43]": {"target": "T2, Bromodomain-containing protein 2", "test": "TR-FRET assay (BRD2 BD2)"}, "[44]": {"target": "D(2) dopamine receptor (Homo sapiens, UniProt P14416)", "conditions": "Compound concentration 10.0 uM"}}, "note": "Calls of active or inactive are those of the source. The calls are words filed in the database; no cut-off is given here.", "data": [{"compound": "COCc1nc2cnc3cc(-c4c(C)noc4C)c(OC[C@H]4CCNC4)cc3c2n1[C@H](C)c1ccccc1", "note": "[GSK778]", "values": [{"measurement": "inhibition", "setting": "[1]", "result": -5.06, "unit": "%"}, {"measurement": "IC50", "setting": "[2]", "result": "> 25.1", "unit": "µM"}, {"measurement": "Kd", "setting": "[3]", "result": 29, "unit": "µM"}, {"measurement": "pIC50", "setting": "[4]", "result": 5.5}, {"measurement": "Kd", "setting": "[5]", "result": "0.005 µM (active)"}, {"measurement": "Kd", "setting": "[6]", "result": 33, "unit": "µM"}, {"measurement": "Ki", "setting": "[7]", "result": 1.97, "unit": "µM"}, {"measurement": "pKi", "setting": "[7]", "result": 5.75}, {"measurement": "pIC50", "setting": "[8]", "result": 7.4}, {"measurement": "Kd", "setting": "[9]", "result": 30, "unit": "µM"}, {"measurement": "inhibition", "setting": "[10]", "result": 17, "unit": "%"}, {"measurement": "pMEC", "setting": "[11]", "result": "< 4"}, {"measurement": "IC50", "setting": "[12]", "result": "0.075 µM (active)"}, {"measurement": "Kd", "setting": "[13]", "result": 30, "unit": "µM"}, {"measurement": "inhibition", "setting": "[14]", "result": 2.89, "unit": "%"}, {"measurement": "Kd", "setting": "[15]", "result": 30, "unit": "µM"}, {"measurement": "inhibition", "setting": "[16]", "result": 31.7, "unit": "%"}, {"measurement": "inhibition", "setting": "[17]", "result": 62.4, "unit": "%"}, {"measurement": "Kd", "setting": "[18]", "result": 0.005, "unit": "µM"}, {"measurement": "inhibition", "setting": "[19]", "result": 15.3, "unit": "%"}, {"measurement": "Kd", "setting": "[20]", "result": 15, "unit": "µM"}, {"measurement": "inhibition", "setting": "[21]", "result": 7.75, "unit": "%"}, {"measurement": "inhibition", "setting": "[22]", "result": 18.4, "unit": "%"}, {"measurement": "inhibition", "setting": "[23]", "result": 16.9, "unit": "%"}, {"measurement": "inhibition", "setting": "[24]", "result": -1.37, "unit": "%"}, {"measurement": "inhibition", "setting": "[25]", "result": 15.5, "unit": "%"}, {"measurement": "Kd", "setting": "[26]", "result": 0.013, "unit": "µM"}, {"measurement": "inhibition", "setting": "[27]", "result": 24.6, "unit": "%"}, {"measurement": "Kd", "setting": "[28]", "result": 30, "unit": "µM"}, {"measurement": "inhibition", "setting": "[29]", "result": 4.82, "unit": "%"}, {"measurement": "inhibition", "setting": "[30]", "result": 29.3, "unit": "%"}, {"measurement": "inhibition", "setting": "[31]", "result": 79.5, "unit": "%"}, {"measurement": "inhibition", "setting": "[32]", "result": 9.95, "unit": "%"}, {"measurement": "Kd", "setting": "[33]", "result": 30, "unit": "µM"}, {"measurement": "Kd", "setting": "[34]", "result": 30, "unit": "µM"}, {"measurement": "inhibition", "setting": "[35]", "result": 27.9, "unit": "%"}, {"measurement": "inhibition", "setting": "[36]", "result": 12.3, "unit": "%"}, {"measurement": "inhibition", "setting": "[37]", "result": 69.8, "unit": "%"}, {"measurement": "inhibition", "setting": "[38]", "result": -0.02, "unit": "%"}, {"measurement": "Ki", "setting": "[39]; read-out: Ki", "result": 0.857, "unit": "µM"}, {"measurement": "Ki", "setting": "[39]; read-out: pKi (converted)", "result": 0.813, "unit": "µM"}, {"measurement": "Ki", "setting": "[40]", "result": 4.46, "unit": "µM"}, {"measurement": "Kd", "setting": "[41]", "result": 30, "unit": "µM"}, {"measurement": "inhibition", "setting": "[42]", "result": 15.3, "unit": "%"}, {"measurement": "IC50", "setting": "[43]", "result": "3.95 µM (not active)"}, {"measurement": "inhibition", "setting": "[44]", "result": 27.7, "unit": "%"}]}]}
